From PubChem BioAssay (NCI)
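In this assay, cells in 96-well plates receive the compound at five concentrations for 48 hours. Endpoints are linearly interpolated between the surrounding concentrations. TGI is the concentration that stops growth completely.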

Experiments:
Test in all cases: NCI anticancer screen, dose series, 48 h
KM12 colon = test system: KM12 colon
SF-268 CNS = test system: SF-268 CNS
NCI-H522 lung = test system: NCI-H522 lung
IGROV1 ovarian = test system: IGROV1 ovarian
TK-10 renal = test system: TK-10 renal
UACC-62 melanoma = test system: UACC-62 melanoma
786-0 renal = test system: 786-0 renal
HCT-15 colon = test system: HCT-15 colon
HL-60(TB) leukemia = test system: HL-60(TB) leukemia
SF-295 CNS = test system: SF-295 CNS
OVCAR-4 ovarian = test system: OVCAR-4 ovarian
NCI-H23 lung = test system: NCI-H23 lung
K-562 leukemia = test system: K-562 leukemia
UACC-257 melanoma = test system: UACC-257 melanoma
SNB-19 CNS = test system: SNB-19 CNS
SK-MEL-2 melanoma = test system: SK-MEL-2 melanoma
SK-OV-3 ovarian = test system: SK-OV-3 ovarian
MDA-N = test system: MDA-N
SR leukemia = test system: SR leukemia
NCI-H460 lung = test system: NCI-H460 lung
OVCAR-3 ovarian = test system: OVCAR-3 ovarian
HCT-116 colon = test system: HCT-116 colon
DU-145 prostate = test system: DU-145 prostate
HOP-62 NSCLC = test system: HOP-62 NSCLC
RXF 393 renal = test system: RXF 393 renal
COLO 205 colon = test system: COLO 205 colon
SN12C renal = test system: SN12C renal
CCRF-CEM leukemia = test system: CCRF-CEM leukemia
SK-MEL-5 melanoma = test system: SK-MEL-5 melanoma
SNB-75 CNS = test system: SNB-75 CNS
HS 578T breast = test system: HS 578T breast
M14 melanoma = test system: M14 melanoma
NCI-H226 lung = test system: NCI-H226 lung
HCC-2998 colon = test system: HCC-2998 colon
EKVX NSCLC = test system: EKVX NSCLC
OVCAR-5 ovarian = test system: OVCAR-5 ovarian
PC-3 prostate = test system: PC-3 prostate
A498 renal = test system: A498 renal
OVCAR-8 ovarian = test system: OVCAR-8 ovarian
MDA-MB-231 breast = test system: MDA-MB-231 breast
T-47D breast = test system: T-47D breast
UO-31 renal = test system: UO-31 renal
BT-549 breast = test system: BT-549 breast
U251 CNS = test system: U251 CNS
RPMI-8226 leukemia = test system: RPMI-8226 leukemia
NCI/ADR-RES ovarian = test system: NCI/ADR-RES ovarian
CAKI-1 renal = test system: CAKI-1 renal
ACHN renal = test system: ACHN renal
LOX IMVI melanoma = test system: LOX IMVI melanoma
MDA-MB-435 = test system: MDA-MB-435
HT29 colon = test system: HT29 colon
SK-MEL-28 melanoma = test system: SK-MEL-28 melanoma
A549 NSCLC = test system: A549 NSCLC
SW-620 colon = test system: SW-620 colon
MALME-3M melanoma = test system: MALME-3M melanoma
MCF7 breast = test system: MCF7 breast
MOLT-4 leukemia = test system: MOLT-4 leukemia
SF-539 CNS = test system: SF-539 CNS
HOP-92 NSCLC = test system: HOP-92 NSCLC

Question: What does the source list for CC(C)C(Sc1nc(N)nc2nc[nH]c12)C(=O)O (stereo not drawn)?
Answer: TGI (KM12 colon): > 100 µM; TGI (SF-268 CNS): > 100 µM; TGI (NCI-H522 lung): > 100 µM; TGI (IGROV1 ovarian): > 100 µM; TGI (TK-10 renal): > 100 µM; TGI (UACC-62 melanoma): > 100 µM; TGI (786-0 renal): > 100 µM; TGI (HCT-15 colon): > 100 µM; TGI (HL-60(TB) leukemia): > 100 µM; TGI (SF-295 CNS): > 100 µM; TGI (OVCAR-4 ovarian): > 100 µM; TGI (NCI-H23 lung): > 100 µM; TGI (K-562 leukemia): > 100 µM; TGI (UACC-257 melanoma): > 100 µM; TGI (SNB-19 CNS): > 100 µM; TGI (SK-MEL-2 melanoma): > 100 µM; TGI (SK-OV-3 ovarian): > 100 µM; TGI (MDA-N): > 100 µM; TGI (SR leukemia): > 100 µM; TGI (NCI-H460 lung): > 100 µM; TGI (OVCAR-3 ovarian): > 100 µM; TGI (HCT-116 colon): > 100 µM; TGI (DU-145 prostate): > 100 µM; TGI (HOP-62 NSCLC): > 100 µM; TGI (RXF 393 renal): > 100 µM; TGI (COLO 205 colon): > 100 µM; TGI (SN12C renal): > 100 µM; TGI (CCRF-CEM leukemia): > 100 µM; TGI (SK-MEL-5 melanoma): > 100 µM; TGI (SNB-75 CNS): > 100 µM; TGI (HS 578T breast): > 100 µM; TGI (M14 melanoma): > 100 µM; TGI (NCI-H226 lung): > 100 µM; TGI (HCC-2998 colon): > 100 µM; TGI (EKVX NSCLC): > 100 µM; TGI (OVCAR-5 ovarian): > 100 µM; TGI (PC-3 prostate): > 100 µM; TGI (A498 renal): > 100 µM; TGI (OVCAR-8 ovarian): > 100 µM; TGI (MDA-MB-231 breast): > 100 µM; TGI (T-47D breast): > 100 µM; TGI (UO-31 renal): > 100000 nM; TGI (BT-549 breast): > 100 µM; TGI (U251 CNS): > 100 µM; TGI (RPMI-8226 leukemia): > 100 µM; TGI (NCI/ADR-RES ovarian): > 100 µM; TGI (CAKI-1 renal): > 100 µM; TGI (ACHN renal): > 100 µM; TGI (LOX IMVI melanoma): > 100 µM; TGI (MDA-MB-435): > 100 µM; TGI (HT29 colon): > 100 µM; TGI (SK-MEL-28 melanoma): > 100 µM; TGI (A549 NSCLC): > 100 µM; TGI (SW-620 colon): > 100 µM; TGI (MALME-3M melanoma): > 100 µM; TGI (MCF7 breast): > 100 µM

Question: Which results are given for Clc1ccc(Cc2nc3cc(Cl)c(Cl)cc3n2CC2CCCN3CCCCC23)cc1 (stereo not drawn)?
Answer: TGI (KM12 colon): 40 µM; TGI (MOLT-4 leukemia): > 100 µM; TGI (SF-268 CNS): 22.3 µM; TGI (NCI-H522 lung): 24.6 µM; TGI (IGROV1 ovarian): 21 µM; TGI (TK-10 renal): 27.7 µM; TGI (UACC-62 melanoma): 21.2 µM; TGI (786-0 renal): 23.5 µM; TGI (HCT-15 colon): 23.3 µM; TGI (HL-60(TB) leukemia): 25.4 µM; TGI (SF-295 CNS): 29.2 µM; TGI (OVCAR-4 ovarian): 79.4 µM; TGI (K-562 leukemia): > 100 µM; TGI (UACC-257 melanoma): 13 µM; TGI (SNB-19 CNS): 27.1 µM; TGI (SK-MEL-2 melanoma): 29.8 µM; TGI (SK-OV-3 ovarian): 32.8 µM; TGI (MDA-N): 24.2 µM; TGI (SR leukemia): 15.1 µM; TGI (NCI-H460 lung): 23.2 µM; TGI (OVCAR-3 ovarian): 28.5 µM; TGI (HCT-116 colon): 21.8 µM; TGI (SF-539 CNS): 22.3 µM; TGI (DU-145 prostate): 26.2 µM; TGI (HOP-62 NSCLC): 40.8 µM; TGI (RXF 393 renal): 37.6 µM; TGI (COLO 205 colon): 22.3 µM; TGI (SN12C renal): 25.4 µM; TGI (SK-MEL-5 melanoma): 23.3 µM; TGI (SNB-75 CNS): 21.6 µM; TGI (HS 578T breast): 26.5 µM; TGI (M14 melanoma): 7.95 µM; TGI (NCI-H226 lung): 38 µM; TGI (HCC-2998 colon): 14.6 µM; TGI (HOP-92 NSCLC): 24.9 µM; TGI (EKVX NSCLC): 23 µM; TGI (OVCAR-5 ovarian): 26 µM; TGI (PC-3 prostate): 21.1 µM; TGI (A498 renal): 27.5 µM; TGI (OVCAR-8 ovarian): 26.1 µM; TGI (MDA-MB-231 breast): 19.3 µM; TGI (T-47D breast): 64.6 µM; TGI (UO-31 renal): 1600 nM; TGI (BT-549 breast): 26.1 µM; TGI (U251 CNS): 20.8 µM; TGI (RPMI-8226 leukemia): > 100 µM; TGI (NCI/ADR-RES ovarian): 27.3 µM; TGI (CAKI-1 renal): 34.1 µM; TGI (ACHN renal): 22.2 µM; TGI (LOX IMVI melanoma): 19.4 µM; TGI (MDA-MB-435): 40.4 µM; TGI (HT29 colon): 13.1 µM; TGI (SK-MEL-28 melanoma): 20.8 µM; TGI (A549 NSCLC): 26.2 µM; TGI (SW-620 colon): 31.3 µM; TGI (MALME-3M melanoma): 20.9 µM; TGI (MCF7 breast): 28.3 µM
